From patent publication US20220152087A1, “CYCLODEXTRIN DERIVATIVES REDUCING FLAVIVIRUS NS1-INDUCED ENDOTHELIAL HYPERPERMEABILITY AND VASCULAR LEAK” (priority 2020, published 2022)

Tested on: endothelial dysfunction induced by DENV NS1 in HPMEC monolayers
Assay: Effect of cyclodextrins on endothelial dysfunction induced by DENV NS1 (TEER of HPMEC monolayers in transwells)
Assay type: cell-based, human
Conditions: DENV NS1 at 10 micrograms/mL, TEER 2 to 10 hours post-treatment, AUC vs DENV NS1-only control
Procedure: The present invention is based on the evaluation of the in vitro efficacy against DENV NS1-mediated pathogenesis of a series of different CDs that display variable cavity sizes as well as different degrees and types of substitution. In an in vitro model of endothelial permeability, CDs, at concentrations with no anticoagulant effects, were added to human pulmonary microvascular endothelial cells (HPMECs) treated with DENV NS1 to induce endothelial hyperpermeability.
Endothelial disruption (hyperpermeability) was quantified by measuring transendothelial electrical resistance (TEER). […] Sulfate group substitution of cyclodextrins contributed to the anti-leak activity.
The method is suitable to study the effect of NS1 from DENV from all serotypes and NS1 from other flaviviruses. HPMEC monolayers (6×10^4 cells/transwell) cultured in transwell inserts for three days were treated with the CD compounds then treated or not with DENV NS1 at 10 micrograms/mL. Recombinant NS1 protein from DENV (Strain 16681) weas certified to be endotoxin-free and >95% purity (Native Antigen, United Kingdom). TEER was measured from 2 to 10 hours post-treatment. The area under the curve of the different treatments+DENV NS1 was compared by one-way ANOVA plus Dunnett's test to the DENV NS1-only control.
Randomly substituted alpha-cyclodextrin sulfate sodium salt (average degree of substitution: ˜12) was used as specified according to Example 1. […] A) HPMEC monolayers (6×10e4 cells/transwell) cultured in transwell inserts for three days were treated with the compounds in the presence or absence of DENV NS1 at 10 ug/mL. TEER was measured from 2 to 10 hours post-treatment. Relative TEER was calculated as the ratio between resistance values obtained in the different treatments and medium-only controls. B) Area under the curve of the different treatments was compared by one-way ANOVA plus Dunnett's test to the DENV NS1control. P-values are summarized with number of asterisks as follows: *p≤0.05, **p≤0.01, ***p≤0.001, ****p≤0.0001. The effective dose of cyclodextrin for hindering endothelial leakage was 10 micrograms/mL.

| Substance | effective dose of cyclodextrin for hindering endothelial leakage / hyperpermeability [micrograms/mL] |
| --- | --- |
| 2,3-di-OH-6-sulfo-gamma cyclodextrin sodium salt | 10 |
| 2,3-dimethyl-6-sulfate-alpha cyclodextrin sodium salt | 250 |
| 2,3-dimethyl-6-sulfate-beta cyclodextrin sodium salt | 100 |
| 2,3-dimethyl-6-sulfate-gamma cyclodextrin sodium salt | 100 |
| 2-hydroxypropyl-beta-cyclodextrin [reference compound] | 1000 |
| 2-hydroxypropyl-gamma-cyclodextrin | 1000 |
| alpha-cyclodextrin sulfate sodium salt | 10 |
| beta cyclodextrin sulfate sodium salt | 10 |
| gamma cyclodextrin sulfate sodium salt | 10 |
| sulfobutlyether beta cyclodextrin sodium salt | 100 |
| sulfopropylether alpha cyclodextrin sodium salt | 1000 |
| sulfopropylether beta cyclodextrin sodium salt | 1000 |
| sulfopropylether gamma cyclodextrin sodium salt | 1000 |
